# Reference: ChEMBL document CHEMBL1201862, “PubChem BioAssay data set” (2004)
# Calls of active or inactive are those of the source.
# Legend:
# [1] = off-target signal loss in HeLa-CEM21 co-culture – HeLa F-luc CTL cells, cherry-picked, counter-screen for HIV-1 Env fusion inhibitor project, dose response (AID 652040); assay type: functional, cell-based;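 also: potency for signal decrease marking cytotoxic or nonspecific inhibition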
# [2] = A549 cell cytotoxicity, dose response, cytotoxicity control, plate reader, cherry-pick, antagonist series (AID 743412); assay type: functional, cell-based
# [3] = LGR2 antagonists, dose response, cell-based, HEK293, CRE-luciferase reporter, cherry pick, set 2 (AID 743343); assay type: functional;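 also: transfected cells were stimulated with diluted bursicon conditioned medium after compound addition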
# [4] = MC4R antagonists, dose response, counter-screen for LGR2 antagonist project, cell-based, plate reader, cherry pick (AID 743444); assay type: functional;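 also: transfected HEK 293 cells stimulated with alpha-MSH peptide; potency of inhibitors of the alpha-MSH evoked signal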
# [5] = HEK293 cell cytotoxicity, dose response, cytotoxicity control, plate reader, cherry-picked samples (AID 743446); assay type: functional, cell-based
# [6] = inhibitors of HIV Env-driven cell fusion, dose response, cherry-pick (AID 652057); assay type: functional, cell-based
# [7] = HepG2 cell cytotoxicity, dose response, cytotoxicity control, plate reader, cherry-pick, antagonist series (AID 743416); assay type: functional, cell-based
# [8] = inhibitors of clade B AD8 Env fusion, dose response, cell-based, cherry-pick (AID 652062); assay type: functional;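 also: luciferase signal from cell-cell fusion driven by HIV-1 clade B AD8 Env; potency is for inhibitors of fusion seen as a drop in luminescence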
# [9] = CEM21 lymphoblast cell cytotoxicity, dose response, cytotoxicity control for viral fusion inhibitor project, CellTiter-Glo luminescence, cherry-picked (AID 652042); assay type: functional, cell-based;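 also: potency for signal decrease meaning cytotoxicity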
# [10] = ZM109 Env clade C HIV-1 fusion inhibitors, dose response, HeLa effector, CEM target cells, luciferase, cherry-pick (AID 652058); assay type: functional, cell-based
# [11] = cytotoxicity in OVCAR8 ovarian cancer cells, dose response, PAX8 project, cell-based, plate reader, dry powder samples (AID 743197); assay type: functional; conditions: OVCAR-8
# [12] = NIH:OVCAR-3 ovarian cancer cell cytotoxicity, dose response, PAX8 inhibitor project, plate reader, dry powder samples (AID 743044); assay type: functional, cell-based
# Paired box protein Pax-8 = Paired box protein Pax-8 (Homo sapiens, UniProt Q06710); assay: inhibitors of PAX8-driven TPO luciferase reporter, dose response, RMG-I cells, cherry-pick (AID 687027); assay type: functional, cell-based;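 also: luciferase reporter driven by Pax8 target thyroperoxidase promoter measured by SteadyGlo luminescence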
# Paired box protein Pax-8, sequence (Q06710 whole entry): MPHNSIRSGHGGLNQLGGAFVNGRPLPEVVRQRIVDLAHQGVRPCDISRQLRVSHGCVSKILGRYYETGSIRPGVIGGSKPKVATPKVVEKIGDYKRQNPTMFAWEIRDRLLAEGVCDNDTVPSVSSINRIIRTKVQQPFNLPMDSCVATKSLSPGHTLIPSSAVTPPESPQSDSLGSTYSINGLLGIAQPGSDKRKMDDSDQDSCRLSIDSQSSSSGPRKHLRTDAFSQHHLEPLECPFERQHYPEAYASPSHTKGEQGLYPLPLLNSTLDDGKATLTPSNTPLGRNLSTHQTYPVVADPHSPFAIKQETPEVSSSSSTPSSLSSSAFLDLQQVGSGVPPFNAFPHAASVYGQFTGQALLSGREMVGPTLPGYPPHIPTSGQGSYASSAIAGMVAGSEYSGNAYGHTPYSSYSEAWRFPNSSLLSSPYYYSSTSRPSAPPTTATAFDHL
# [13] = HEK293T cytotoxicity, dose response, cytotoxicity control for miR-122 modulator project, cell-based, activator set, cherry-pick (AID 720690); assay type: functional;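 also: HEK293T human cells scored for general mammalian cytotoxicity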
# [14] = non-specific cell cytotoxicity, dose response, cytotoxicity control for PAX8 inhibitor project, plate reader, dry powder samples (AID 743021); assay type: functional, cell-based
# [15] = A2780 ovarian cancer cell cytotoxicity, dose response, cytotoxicity control, plate reader, dry powder samples (AID 743046); assay type: functional, cell-based
# [16] = IGROV1 ovarian cancer cell cytotoxicity, dose response, PAX8 inhibitor project, plate reader, dry powder samples (AID 743043); assay type: functional, cell-based; conditions: IGROV-1
# [17] = HEK293T cytotoxicity, dose response, cytotoxicity control for miR-122 modulator project, cell-based, inhibitor set, cherry-pick, set 2 (AID 720697); assay type: functional
# [18] = T. cruzi growth inhibition in host cells, dose response, cell-based, plate reader, dry powder, set 2 (AID 652275); assay type: functional
# Protein Tat = molecular target: T1, Protein Tat (Human immunodeficiency virus type 1 group M subtype B (isolate HXB2)(HIV-1), UniProt P04608); assay type: functional;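 also: tat binding to TAR RNA read out by fluorescence polarization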
# T1 sequence (P04608 whole entry): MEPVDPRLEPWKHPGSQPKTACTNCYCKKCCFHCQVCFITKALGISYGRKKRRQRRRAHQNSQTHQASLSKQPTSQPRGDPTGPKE
# [19] = molecular target: Arf-GAP with SH3 domain, ANK repeat and PH domain-containing protein 1 (Homo sapiens, UniProt Q9ULH1); assay type: functional;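 also: biochemical fluorescence polarization dose–response screen measuring inhibition of ASAP1; ASAP1 GAP domain stimulating GTP hydrolysis by truncated human ARF1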
# Arf-GAP with SH3 domain, ANK repeat and PH domain-containing protein 1, sequence (Q9ULH1 whole entry, the tested form may be a part): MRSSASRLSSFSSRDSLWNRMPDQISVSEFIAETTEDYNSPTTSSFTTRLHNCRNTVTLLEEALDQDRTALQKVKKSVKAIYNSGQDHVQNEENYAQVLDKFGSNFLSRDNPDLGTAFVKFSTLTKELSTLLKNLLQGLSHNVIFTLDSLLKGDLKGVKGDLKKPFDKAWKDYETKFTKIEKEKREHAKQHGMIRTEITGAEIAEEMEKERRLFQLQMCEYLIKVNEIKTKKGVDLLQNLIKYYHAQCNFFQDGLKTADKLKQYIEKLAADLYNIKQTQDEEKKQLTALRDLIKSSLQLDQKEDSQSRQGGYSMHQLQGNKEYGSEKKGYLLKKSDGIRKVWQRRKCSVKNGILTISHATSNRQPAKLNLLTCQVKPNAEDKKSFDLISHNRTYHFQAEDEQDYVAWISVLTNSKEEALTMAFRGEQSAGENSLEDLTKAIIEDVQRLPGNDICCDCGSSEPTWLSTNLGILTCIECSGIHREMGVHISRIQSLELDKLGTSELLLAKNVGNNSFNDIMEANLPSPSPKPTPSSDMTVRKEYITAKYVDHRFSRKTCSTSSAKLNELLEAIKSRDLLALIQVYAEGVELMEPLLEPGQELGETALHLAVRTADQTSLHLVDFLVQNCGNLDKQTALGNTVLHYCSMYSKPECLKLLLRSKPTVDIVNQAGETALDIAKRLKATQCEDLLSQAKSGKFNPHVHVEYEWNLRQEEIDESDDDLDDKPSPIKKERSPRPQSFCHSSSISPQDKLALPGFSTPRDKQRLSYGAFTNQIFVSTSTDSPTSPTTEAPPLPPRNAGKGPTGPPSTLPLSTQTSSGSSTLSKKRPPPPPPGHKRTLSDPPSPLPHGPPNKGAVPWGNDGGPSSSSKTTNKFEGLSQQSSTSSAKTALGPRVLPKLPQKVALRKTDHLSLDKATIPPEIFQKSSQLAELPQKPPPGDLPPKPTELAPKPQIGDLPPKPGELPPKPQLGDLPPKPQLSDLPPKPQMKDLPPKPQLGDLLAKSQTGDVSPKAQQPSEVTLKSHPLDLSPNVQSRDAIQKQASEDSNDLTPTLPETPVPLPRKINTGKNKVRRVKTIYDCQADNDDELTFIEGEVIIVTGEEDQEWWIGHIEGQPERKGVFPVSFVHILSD
# [20] = Luminescence Cell-Based Dose Retest to Confirm Inhibitors of Cancer Stem Cells. [Related pubchem assays (depositor defined):AID2717, AID2721]; assay type: functional; conditions: Homo sapiens
# [21] = molecular target: T2, Ubiquitin-conjugating enzyme E2 N (Homo sapiens, UniProt P61088); assay type: functional;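 also: Dose-response confirmation in a TR-FRET assay detecting UBC13-driven polyubiquitin chain formation, inhibition measured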
# T2 sequence (P61088 whole entry): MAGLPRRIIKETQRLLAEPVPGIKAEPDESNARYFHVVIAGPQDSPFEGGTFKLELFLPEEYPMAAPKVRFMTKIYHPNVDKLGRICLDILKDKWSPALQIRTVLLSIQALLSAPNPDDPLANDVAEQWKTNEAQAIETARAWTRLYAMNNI
# [22] = cytotoxicity toward NIH3T3 fibroblasts, dose response, counter-screen, cell-based, ATP luminescence, mouse fibroblasts (AID 2010); assay type: functional;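 also: cells exposed to compound for about 90 hours before reading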
# [23] = inhibitors of intracellular T. cruzi replication, confirmation, NIH3T3 host cells, beta-gal luminescence (AID 2044); assay type: functional, cell-based;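 also: intracellular parasites grown in NIH/3T3 mouse fibroblasts as host cells; luminescent beta-galactosidase reporter signal from transgenic T. cruzi replicating inside host cells; inhibitors lower the luminescence signal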
# INS1 = assay: beta cell apoptosis inhibitors, cytokine rescue, dose response, luminescence, retest (AID 449756); assay type: functional, cell-based; conditions: Rattus norvegicus;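 also: cell death triggered by IL-1 beta plus TNF-alpha plus IFN-gamma mixture; protective hits raise ATP signal compared with cytokine alone wells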
# [24] = Dose-response inhibition of insulin secretion in a rat insulinoma line at 5 mM glucose (AID 1117331); assay type: functional, cell-based; conditions: INS-1E
compound,measurement,setting,value
CC(C)c1ccc(OCCCN2CCC(C(O)(c3ccccc3)c3ccccc3)CC2)cc1,AC50,[1],7.88 µM (active)
same,AC50,[2],9.56 µM (active)
same,AC50,[3],6.8 µM (active)
same,AC50,[4],5.65 µM (active)
same,AC50,[5],14 µM (active)
same,AC50,[6],9.63 µM (active)
same,AC50,[7],7.6 µM (active)
same,AC50,[8],9.48 µM (active)
same,AC50,[9],7.21 µM (active)
same,AC50,[10],9.88 µM (active)
C[C@@H]1CN([C@@H](C)CO)S(=O)(=O)c2ccc(C#Cc3ccccc3F)cc2O[C@@H]1CN(C)C(=O)c1ccc2c(c1)OCO2,AC50,[11],> 70 µM (inactive)
same,AC50,[12],20.5 µM (active)
same,AC50,Paired box protein Pax-8,13.2 µM (active)
same,AC50,[13],26.9 µM (active)
O=C(Cc1cccnc1)N1CCCCN2[C@H](C1)[C@H](c1ccc(/C=C/c3ccccc3)cc1)[C@@H]2CO,AC50,[14],50.6 µM (active)
same,AC50,[11],41.2 µM (active)
same,AC50,[15],25.1 µM (active)
same,AC50,[12],5.01 µM (active)
same,AC50,Paired box protein Pax-8,4.42 µM (active)
C[C@@H]1CCCCO[C@H](CN(C)Cc2ccc(C(F)(F)F)cc2)[C@H](C)CN([C@@H](C)CO)C(=O)c2cc(NC(=O)Nc3ccc4c(c3)OCO4)ccc2O1,AC50,[11],36.8 µM (active)
same,AC50,[16],40.9 µM (active)
same,AC50,[15],42.2 µM (active)
same,AC50,[12],48.7 µM (active)
same,AC50,Paired box protein Pax-8,3.34 µM (active)
Cc1cccc(S(=O)(=O)N2CC[C@@H]3[C@H]2c2cc(C4=CCCCC4)ccc2N[C@@H]3CO)c1,AC50,[11],> 70 µM (inactive)
same,AC50,[16],55.6 µM (active)
same,AC50,Paired box protein Pax-8,10.8 µM (active)
CO[C@@H]1CN(C)C(=O)c2ccc(NC(C)=O)cc2OC[C@@H](C)N(C(=O)c2ccccc2F)C[C@H]1C,AC50,[17],0.147 µM (active)
O=C(Cc1ccccn1)N1CCCCN2[C@@H](CO)[C@H](c3ccc(-c4ccccc4)cc3)[C@@H]2C1,AC50,[18],0.551 µM (active)
Cc1nccn1CC(=O)N/N=C/c1ccc(O)c(O)c1,IC50,Protein Tat,39 µM (inconclusive)
COc1ccc(C(=O)N/N=C/c2cccnc2)cc1,IC50,Protein Tat,> 100 µM (active)
OCCNc1nc(Nc2ccc(Cl)c(Cl)c2)nc2ccccc12,IC50,[19],55.3 µM (inactive)
same,AC50,[20],2.43 µM (active)
same,IC50,[21],> 20 µM (inactive)
same,EC50,[22],> 30 µM (not active)
same,EC50,[23],0.464 µM (active)
same,AC50,INS1,13.4 µM (active)
CN1C(=O)CC[C@H]1c1cccnc1 [COTININE],IC50,[24],> 33.3 µM (inactive)
